Test system: Spodoptera eridania
Assay: Southern armyworm (Spodoptera eridania), 2nd instar larvae, on dipped Sieva lima bean foliage
Format: in vivo
Conditions: 300 ppm, observation at 5 days
Description: The active compounds were formulated • a. for testing the activity against Aphis gossypii, Myzus persicae, and Aphis fabae, as 50:50 acetone:water solutions amended with 100 ppm Kinetic® (surfactant), • b. for testing the activity against Spodoptera eridania as a 10.000 ppm solution in a mixture of 35% acetone and water, which was diluted with water, if needed,
After the experiments were completed, in each case the lowest concentration was determined at which the compound still caused an 75 to 100% inhibition or mortality in comparison with untreated controls (limit or minimal concentration).
Foliage of two Sieva lima beans plants at the first expanded true-leaf stage that are contained within a single 3.8 cm square plastic pot are dipped into the test solution with agitation for 3 seconds and allowed to dry in a hood. The pot is then placed in a 25.4 cm plastic zipper top bag and infested with ten 2nd instar caterpillars. At 5 days, observations are made of mortality, reduced feeding, or any interference with normal molting.

## Cc1cccc(CC(NC2=NCC(C)S2)c2ccccc2)c1 (stereo not shown) [Example 16]
  mortality in comparison with untreated controls: over 50%
